# Values quoted from earlier work, collected in publication PMC9479156 (Frontiers in Pharmacology, 2022).
# System: late stage IV-V P. falciparum NF54 gametocytes
# Design: method as in Coertzen et al., 2018, Wong et al., 2019
# Details: ref Coertzen et al., 2018, Wong et al., 2019, cited from earlier work
smiles,measurement,setting,value
"C[C@H]1[C@H](N2CCS(=O)(=O)CC2)O[C@@H]2O[C@@]3(C)CC[C@H]4[C@H](C)CC[C@@H]1[C@@]24OO3 [Artemisone, artemisone]",IC50,"NF54 gametocytes, luciferase, 72 h, mean ± SEM, read-out: Late stage IV-V (luc 72 h) IC50",42.4 ± 3.3 nM
same,Fold change preference ratio LG to EG,late vs immature stage gametocytes,0.05
